Consider nine compounds from ChEMBL document CHEMBL3046888, “Antiviral and Antifungal Activities of Some Naphthoquinones Isolated from the Roots of Lithospermum erythrorhizon” (J Pestic Sci, 1998).

In series [1] the test system is Tobacco mosaic virus. As to the kind of experiment: Antiviral activity against Tobacco mosaic virus (TMV) in compound treated tobacco leaf assessed as growth inhibition at 25 mM at 25 degC for 3 days (16 hr in light) by half-leaf method. In kind it is functional. Set-up: dose or concentration left out as unconfirmed.
For series [2], the system named is Cladosporium herbarum. As to the kind of experiment: Antifungal activity against Cladosporium herbarum assessed as inhibition at 50 nmol in 8 mm disk. In kind it is functional.
The test system of series [3] is Cladosporium herbarum. As to the kind of experiment: Antifungal activity against Cladosporium herbarum assessed as inhibition at 1250 nmol in 8 mm disk. In kind it is functional.
Series [4] deals with Cladosporium herbarum. The series is described as follows: Antifungal activity against Cladosporium herbarum assessed as inhibition at 250 nmol in 8 mm disk. In kind it is functional.
For series [5], the system named is Tobacco mosaic virus. The series is described as follows: Antiviral activity against Tobacco mosaic virus (TMV) in compound treated tobacco leaf assessed as growth inhibition at 5 mM at 25 degC for 3 days (16 hr in light) by half-leaf method. Format: functional.
The test system of series [6] is Cladosporium herbarum. The series is described as follows: Antifungal activity against Cladosporium herbarum assessed as inhibition at 10 nmol in 8 mm disk. In kind it is functional.
Another series deals with Nicotiana tabacum. The series is described as follows: Phytotoxicity against Nicotiana tabacum (tobacco) plant at 25 mM. In kind it is organism-based. Particulars: in vivo, 25000 µM.

Active and inactive are the calls of the source. The rule behind the calls is not given here.

By inhibition is commonly meant the relative decrease from the control value, in per cent. In the case of `CCC(=O)O[C@H](CC=C(C)C)C1=CC(=O)c2c(O)ccc(O)c2C1=O`, the inhibition with Tobacco mosaic virus [1] was determined as 99.9%. In addition, the “diameter of the inhibition zone (DIZ)” value in the series with Cladosporium herbarum [2] is on record as 11.3 mm; in the series with Cladosporium herbarum [3], 15.1 mm; with Cladosporium herbarum [4], 15.6 mm; in the series with Cladosporium herbarum [6], 9.1 mm. In addition, the inhibition at 5000 µM in the series on Tobacco mosaic virus [5] amounted to 86.1%.

With `CCC(C)C(=O)O[C@H](CC=C(C)C)C1=CC(=O)c2c(O)ccc(O)c2C1=O` (some centres undefined), the inhibition with Tobacco mosaic virus [1] was determined as 86.1%. Moreover, the inhibition entry with Tobacco mosaic virus [5] was “inactive”.

In the case of `CC(C)=CC[C@@H](OC(=O)C=C(C)C)C1=CC(=O)c2c(O)ccc(O)c2C1=O` [DIMETHYLACRYLSHIKONIN], the inhibition in the series with Tobacco mosaic virus [1] came out at 70.2%. In the series with Tobacco mosaic virus [5], the inhibition at 5000 µM was found to be 26%.

Take `CC(C)=CCCC1=CC(=O)c2c(O)ccc(O)c2C1=O` [DEOXYSHIKONIN]: the inhibition in the series on Tobacco mosaic virus [1] came out at 87.3%. Besides, the inhibition at 5000 µM with Tobacco mosaic virus [5] was 66.4%.

Turning to `CC(C)=CC[C@@H](OC(=O)C(C)C)C1=CC(=O)c2c(O)ccc(O)c2C1=O` [ISOBUTYLSHIKONIN], the inhibition in the series with Tobacco mosaic virus [1] came out at 75.5%. In the series on Tobacco mosaic virus [5], the inhibition at 5000 µM came out at 49.5%.

In the case of `CC(=O)O[C@H](CC=C(C)C)C1=CC(=O)c2c(O)ccc(O)c2C1=O` [ACETYLSHIKONIN], in the series on Tobacco mosaic virus [1], the inhibition came out at 78.7%. The “diameter of the inhibition zone (DIZ)” value in the series with Cladosporium herbarum [2] is 13 mm; in the series with Cladosporium herbarum [3], 13.4 mm; in the series on Cladosporium herbarum [4], 13.3 mm; with Cladosporium herbarum [6] it was 10.1 mm. For the same compound, the inhibition at 5000 µM in the series with Tobacco mosaic virus [5] stood at 73.2%.

As for `CC(C)=CC[C@@H](OC(=O)CC(C)(C)O)C1=CC(=O)c2c(O)ccc(O)c2C1=O` [BETA-HYDROXYISOVALERYLSHIKONIN], the “diameter of the inhibition zone (DIZ)” value is reported as 13.8 mm in the series on Cladosporium herbarum [2], 17.6 mm with Cladosporium herbarum [3], 16 mm in the series on Cladosporium herbarum [4] and 9.1 mm in the series on Cladosporium herbarum [6]. Moreover, the Activity entry with Nicotiana tabacum is “Toxic”. In the series with Tobacco mosaic virus [5], the inhibition at 5000 µM was found to be 44%.

With `CC(C)=CC[C@@H](O)C1=CC(=O)c2c(O)ccc(O)c2C1=O` [SHIKONIN], the “diameter of the inhibition zone (DIZ)” value in the series with Cladosporium herbarum [2] came out at 13.4 mm; in the series on Cladosporium herbarum [3] it was 15.9 mm; in the series with Cladosporium herbarum [4], 14.1 mm; with Cladosporium herbarum [6] it was 9.9 mm. The Activity result in the series with Nicotiana tabacum was “Toxic”. In addition, the inhibition result in the series with Tobacco mosaic virus [5] was “inactive”.

`CC(C)=CC[C@@H](OC(=O)CC(C)C)C1=CC(=O)c2c(O)ccc(O)c2C1=O`: the inhibition in the series on Tobacco mosaic virus [1] was determined as 86.1%. The inhibition at 5000 µM in the series on Tobacco mosaic virus [5] was 46%.
